Like-named read-outs stand apart in the source and are kept apart here.
Assays:
[1] = cited from earlier work
[2] = vital blue dye alone, intradermal; cited from earlier work
[3] = Porcine model of lymphatic mapping (intradermal limb injection); type: in vivo, swine
[4] = 1,047 patients, intradermal, 10% fluorescein mixed 1:1 with 1% lidocaine hydrochloride; cited from earlier work
[5] = 120 colon cancer patients, intramural bowel injection; cited from earlier work
[6] = Human melanoma clinical trial, intraoperative sentinel lymph node fluorescence; type: in vivo; conditions: 0.001%, 1 ml intradermally in 4 locations, 3 out of 5 patients
Experimental: Patients with cutaneous malignant melanoma with a Breslow thickness of 0.75 mm or greater, or Clark level IV/V involvement, or ulceration were enrolled in the trial. All patients underwent preoperative lymphoscintigraphy with 99m-Technetium labeled sulfur colloid up to 24 hours before the operation. The normally used intraoperative vital blue dye was replaced by fluorescein. The initial starting dose of fluorescein was 0.001% and 1 ml was injected intradermally intraoperatively in 4 locations around the melanoma biopsy site. At this does, sentinel lymph node fluorescence was identified in 3 out of 5 patients (60%). […] The 0.01% dose was used in the subsequent phase II study.

SMILES | patients with anaphylactoid reaction or life threatening anaphylactic shock ([1]; 1% dye, lymphatic mapping and SLNB) | chance of a life-threatening anaphylactic event caused by injection ([1]; human, in vivo) | cases in which the SLN can be identified [2] | forelimb injections leading to a SLN ([3]; swine forelimb, injected four times) | adverse reactions [4] | adverse reactions [5] | patients with sentinel lymph node fluorescence identified [6] | forelimb injections developing visible fluorescence leading to a SLN ([3]; swine forelimb, one of seven injections) | hindlimb injections showing lymphatic trunks under the skin leading to the SLN ([3]; swine hindlimb, nine of ten injections)
CCN(CC)c1ccc(C(=C2C=CC(=[N+](CC)CC)C=C2)c2cc(S(=O)(=O)[O-])ccc2S(=O)(=O)[O-])cc1.[Na+] [Lymphazurin, isosulfan blue] | 0.1-2% | 1% | approximately 87% | failed to lead to a SLN | – | – | – | – | –
O=C1OC2(c3ccc(O)cc3Oc3cc(O)ccc32)c2ccccc21 [fluorescein, Fluorescein] | – | – | – | – | without adverse reactions | none of the 120 patients suffered any adverse reactions | 60% | 14% | 90%

— US20120041305A1, “LIGHT-EMITTING DYE FOR INTRAOPERATIVE IMAGING OR SENTINEL LYMPH NODE BIOPSY” (THE UNIVERSITY OF UTAH RESEARCH FOUNDATION, priority 2009, published 2012)
